Measured values reported in patent US6344219B1, “Chinese drug composition for treatment of peptic ulcer and preparation thereof” (priority 1995, dated 2002).

What was measured:
[1] = system: chronic gastric ulcer caused by acetic acid burn; experiment: Chronic gastric ulcer of rats caused by acetic acid burn (adapted Takagi's method); format: in vivo, Rats(SD); details: 200 mg/kg × 12 day ig qd
Experimental: The experiment was conducted using adapted Takagi's method. Fifty rats, 165+15 g, male and female half and half, after abstaining food without abstaining water for 24 hr, were primary anesthetized with ether and their skin were sterilized as regular method. After abdominal section the stomach was gently pulled out. A small glass tube with 0.5 cm inner diameter and 3 cm length was inserted into the stomach near the lesser curvature stomach gland of pylorus using middle finger to resist against the opposite stomach wall. 0.1 ml acetic acid was injected into stomach through the glass tube. After 30 sec counting with stopwatch, acetic acid was sucked out and the stomach was rinsed with sterilized normal saline for three times. Remove out the glass tube and absorb the normal saline on its external surface with sterilized filter paper the stomach was put into the abdomen then sew up the wound and sterilize. The rats was randomly divided into 5 groups according to sex and weight on the second day of operation. The rats were administered with drug ig qd×12 day, after abstaining food overnight then were executed by decapitation. The ulcer volumes were measured using the method of injection ink with a micro syringe.

[2] = system: gastric ulcer induced by Reserpine; experiment: Gastric ulcer of rats induced by Reserpine; format: in vivo, Rats(SD); details: 200.0 mg/kg ig once daily for three days, Reserpine 5 mg/kg sc
Experimental: Fifty rats, 180±18 g, male and female half and half, were divided into five groups and were treated with drug ig once daily for three days. After abstaining food for 24 hr Reserpine 5 mg/kg was injected subcutaneously. The rats were executed by decapitation after 18 hr and the gastric ulcer was examined as the same method of 1-1.

[3] = system: stress ulcer of rats induced by water soaking; experiment: Effect to stress ulcer (Takagi's method, water soaking); format: in vivo, Rats(SD); details: 100 mg/kg qd × 2
Experimental: The model was established following Takagi's method. Takagi, et al., The Effects of Drugs on the production and Recovery Processes of the Stress Ulcer, 18:9-18 (1968); and Takagi et al., A New Method For The Production of Chronic Gastric Ulcer in Rats and The Effect of Several Drugs on its Healing, Japan J. Pharmacol Japan J. Pharmacol 19:418-426 (1969). Fifty rats, 159+13 g, male and female half and half, were randomly divided into five groups according to sex and weight and were administered with drugs daily twice, once both in the morning and afternoon for two days. From the beginning of the experiments, food was abstained but water was freely fed. One hour after the last administration, rats were bound on a board and were soaked in a thermostatic flowing water bath at […] for 18 hr then were executed by decapitation. Take out the stomach by abdominal section and ligate the pylorus first then inject 10 ml of 1% formaldehyde solution through cardia of stomach and ligate the cardia. After formalizing the stomach in 1% formaldehyde solution for 10 min, the stomach was cut along the greater curvature with scissor, rinse with normal saline solution for three times and absorb with filter paper, then flatten it on a glass plate and examine the degree of mucosa ulcer and count the number using magnifier. […]

[4] = system: ulcer induced by Histamine; experiment: Ulcer of mice induced by Histamine; format: in vivo, Mice(ICR); details: 200 mg/kg bid × 2 ig, Histamine 80 mg/kg ip
Experimental: Forty mice, male 23±2 g, were divided into five groups, and were administrated once both in the morning and afternoon of everyday by ig. Mice were abstained to feed food for 24 hr except water, then administered Histamine 80 mg/kg, ip, after abstaining food for 8 hr were executed. Take out the stomachs and examine ulcer index using the same method as 1-1.

pyloric ligation ulcer = experiment: Effect to the ulcer of pyloric ligation (Shay's method); format: in vivo, Rats(SD); details: rats; dose 200
Experimental: The experiment is conducted following Shay's method. Fifty rats, 190+20 g, male and female half and half, were randomly divided into five groups according to weight and sex and were administered as 1-1 for three days. Food was abstained but water was freely fed before 48 hr of the operation. After 2 hr of the last administration, operation of pyloric ligation was conducted then both food and water were abstained. After 48 hr the rats were executed and their gastric juice was collected for measuring the volume, and determining the free acid, total acid and pepsin following Metle's method.

CNC(=C[N+](=O)[O-])NCCSCc1ccc(CN(C)C)o1.Cl [Ranitidine, Ranitidine hydrochloride]
rate of inhibition (%) [1]: 50.7%
ulcer volume (μl, × ± SD) [1]: 1.72 ± 1.46 µL
rate of inhibition (%) [2]: 78.2%
ulcer index (x ± SD) [2]: 7.6 ± 2.0
rate of inhibition (%) [3]: 41.5%
ulcer index (x ± SD) [3]: 2.14 ± 0.46
rate of inhibition (%) [4]: 87.8%
ulcer index (x ± SD) [4]: 1.4 ± 3.5
ulcer index (pyloric ligation ulcer): 1.22 ± 1.44
